{"source": "PubChem BioAssay AID330", "about": "(DTP/NCI, 2004)", "system": "P388 leukemia ip, CD2F1 mice, survival T/C", "assay": "NCI In Vivo Anticancer Drug Screen. Data for tumor model P388 Leukemia (intraperitoneal) in CD2F1 (CDF1) mice", "conditions": "endpoint: median survival time, higher = longer survival", "outline": "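Mice carrying the transplanted tumor received test compound or vehicle. Survival was recorded in each group, and the value is the treated-group measurement divided by that of the vehicle-treated control group.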", "key": {"[1]": {"conditions": "dose: 12.5 mg/kg/injection, schedule: Q01DX009 (ip), vehicle: saline with Tween-80"}, "[2]": {"conditions": "dose: 25.0 mg/kg/injection, schedule: Q01DX009 (ip), vehicle: saline with Tween-80"}, "[3]": {"conditions": "dose: 50.0 mg/kg/injection, schedule: Q01DX009 (ip), vehicle: saline with Tween-80"}, "[4]": {"conditions": "dose: 60.0 mg/kg/injection, schedule: Q01DX005 (ip), vehicle: saline with Tween-80"}, "[5]": {"conditions": "dose: 120.0 mg/kg/injection, schedule: Q01DX005 (ip), vehicle: saline with Tween-80"}, "[6]": {"conditions": "dose: 50.0 mg/kg/injection, schedule: Q01DX005 (ip), vehicle: Klucel (hydroxypropylcellulose) (HPC)"}, "[7]": {"conditions": "dose: 100.0 mg/kg/injection, schedule: Q01DX009 (ip), vehicle: saline"}, "[8]": {"conditions": "dose: 200.0 mg/kg/injection, schedule: Q01DX009 (ip), vehicle: saline"}}, "note": "Toxic doses and inconclusive results are not listed."}
{"smiles": "CC(=O)Nc1ccc2nc(SC(C)C)sc2c1", "values": [{"measurement": "T/C", "setting": "dose: 6.25 mg/kg/injection, schedule: Q01DX009 (ip), vehicle: Klucel (hydroxypropylcellulose) (HPC)", "result": "104 % of control"}, {"measurement": "T/C", "setting": "dose: 12.5 mg/kg/injection, schedule: Q01DX009 (ip), vehicle: Klucel (hydroxypropylcellulose) (HPC)", "result": "102 % of control"}, {"measurement": "T/C", "setting": "dose: 25.0 mg/kg/injection, schedule: Q01DX009 (ip), vehicle: Klucel (hydroxypropylcellulose) (HPC)", "result": "96 % of control"}]}
{"smiles": "CN(C=C(C#N)C#N)c1ccccc1", "values": [{"measurement": "T/C", "setting": "[1]", "result": "103 % of control"}, {"measurement": "T/C", "setting": "[2]", "result": "99 % of control"}, {"measurement": "T/C", "setting": "[3]", "result": "99 % of control"}]}
{"smiles": "COC(=O)C1C2C=CC(C1C(=O)OC)C1C(C(=O)NN)C(C(=O)NN)C21", "note": "(stereo not drawn)", "values": [{"measurement": "T/C", "setting": "[4]", "result": "98 % of control"}, {"measurement": "T/C", "setting": "[5]", "result": "97 % of control"}, {"measurement": "T/C", "setting": "dose: 240.0 mg/kg/injection, schedule: Q01DX005 (ip), vehicle: saline with Tween-80", "result": "96 % of control"}]}
{"smiles": "O=C(/C=C/c1ccc(Cl)c(Cl)c1)c1ccc(Cl)cc1", "values": [{"measurement": "T/C", "setting": "[1]", "result": "100 % of control"}, {"measurement": "T/C", "setting": "[2]", "result": "100 % of control"}, {"measurement": "T/C", "setting": "[3]", "result": "100 % of control"}]}
{"smiles": "CC1=NOC2C1Sc1ccccc1N2C", "note": "(stereo not drawn)", "values": [{"measurement": "T/C", "setting": "[6]", "result": "103 % of control"}, {"measurement": "T/C", "setting": "dose: 100.0 mg/kg/injection, schedule: Q01DX005 (ip), vehicle: Klucel (hydroxypropylcellulose) (HPC)", "result": "102 % of control"}, {"measurement": "T/C", "setting": "dose: 200.0 mg/kg/injection, schedule: Q01DX005 (ip), vehicle: Klucel (hydroxypropylcellulose) (HPC)", "result": "100 % of control"}]}
{"smiles": "CCOC(Cn1cc([N+](=O)[O-])c(=O)[nH]c1=O)OCC", "values": [{"measurement": "T/C", "setting": "dose: 25.0 mg/kg/injection, schedule: Q01DX005 (ip), vehicle: Klucel (hydroxypropylcellulose) (HPC)", "result": "90 % of control"}, {"measurement": "T/C", "setting": "[6]", "result": "95 % of control"}]}
{"smiles": "CC(C)C/C=N\\N=C(N)N", "values": [{"measurement": "T/C", "setting": "dose: 50.0 mg/kg/injection, schedule: Q01DX005 (ip), vehicle: saline", "result": "100 % of control"}, {"measurement": "T/C", "setting": "dose: 100.0 mg/kg/injection, schedule: Q01DX005 (ip), vehicle: saline", "result": "100 % of control"}]}
{"smiles": "Cc1ncc(Cn2c(C)c(CCO)sc2=S)c(N)n1", "values": [{"measurement": "T/C", "setting": "dose: 50.0 mg/kg/injection, schedule: Q01DX009 (ip), vehicle: saline", "result": "99 % of control"}, {"measurement": "T/C", "setting": "[7]", "result": "101 % of control"}, {"measurement": "T/C", "setting": "[8]", "result": "108 % of control"}]}
{"smiles": "O=C1C=C(CCC2=CC(=O)c3ccccc3C2=O)C(=O)c2ccccc21", "values": [{"measurement": "T/C", "setting": "[4]", "result": "100 % of control"}, {"measurement": "T/C", "setting": "[5]", "result": "94 % of control"}]}
{"smiles": "CCOC(=O)/C=C(\\C)Sc1cc(O)c2ccccc2c1O", "values": [{"measurement": "T/C", "setting": "[1]", "result": "119 % of control"}, {"measurement": "T/C", "setting": "[3]", "result": "108 % of control"}]}
{"smiles": "COc1cc(C(=O)NCCS(=O)(=O)O)cc(OC)c1OC", "values": [{"measurement": "T/C", "setting": "[7]", "result": "109 % of control"}, {"measurement": "T/C", "setting": "[8]", "result": "109 % of control"}, {"measurement": "T/C", "setting": "dose: 400.0 mg/kg/injection, schedule: Q01DX009 (ip), vehicle: saline", "result": "105 % of control"}]}
{"smiles": "NC(Cc1ccccc1)=S=O", "values": [{"measurement": "T/C", "setting": "dose: 100.0 mg/kg/injection, schedule: Q04DX002 (ip), vehicle: Klucel (hydroxypropylcellulose) (HPC)", "result": "97 % of control"}, {"measurement": "T/C", "setting": "dose: 200.0 mg/kg/injection, schedule: Q04DX002 (ip), vehicle: Klucel (hydroxypropylcellulose) (HPC)", "result": "95 % of control"}]}
{"smiles": "Cc1nc(C#N)c(=N)n(CCCO)c1-c1ccccc1", "values": [{"measurement": "T/C", "setting": "[4]", "result": "109 % of control"}, {"measurement": "T/C", "setting": "[5]", "result": "101 % of control"}]}
{"smiles": "COC(=O)CCC1=C(OC)C(=O)C(OC)=CC1=O", "values": [{"measurement": "T/C", "setting": "[3]", "result": "112 % of control"}, {"measurement": "T/C", "setting": "dose: 100.0 mg/kg/injection, schedule: Q01DX009 (ip), vehicle: saline with Tween-80", "result": "100 % of control"}]}
{"smiles": "Cc1[nH]cnc1CSCCN=C(N)n1[nH]cc(-c2ccc(Cl)cc2)c1=O", "values": [{"measurement": "T/C", "setting": "dose: 100.0 mg/kg/injection, schedule: Q01DX001 (ip), vehicle: Klucel (hydroxypropylcellulose) (HPC)", "result": "100 % of control"}, {"measurement": "T/C", "setting": "dose: 200.0 mg/kg/injection, schedule: Q01DX001 (ip), vehicle: Klucel (hydroxypropylcellulose) (HPC)", "result": "97 % of control"}, {"measurement": "T/C", "setting": "dose: 400.0 mg/kg/injection, schedule: Q01DX001 (ip), vehicle: Klucel (hydroxypropylcellulose) (HPC)", "result": "101 % of control"}]}
{"smiles": "O=C1Cc2ccccc2C(=O)N1", "values": [{"measurement": "T/C", "setting": "dose: 100.0 mg/kg/injection, schedule: Q04DX003 (ip), vehicle: saline with Tween-80", "result": "100 % of control"}, {"measurement": "T/C", "setting": "dose: 200.0 mg/kg/injection, schedule: Q04DX003 (ip), vehicle: saline with Tween-80", "result": "95 % of control"}]}
{"smiles": "Nc1nc2c(c(=O)[nH]1)N(C(=O)c1ccc(S(=O)(=O)F)cc1)C(CNc1ccc(C(=O)NC(CCC(=O)O)C(=O)O)cc1)CN2", "note": "(stereo not drawn)", "values": [{"measurement": "T/C", "setting": "dose: 50.0 mg/kg/injection, schedule: Q04DX003 (ip), vehicle: other", "result": "104 % of control"}, {"measurement": "T/C", "setting": "dose: 100.0 mg/kg/injection, schedule: Q04DX003 (ip), vehicle: other", "result": "104 % of control"}, {"measurement": "T/C", "setting": "dose: 200.0 mg/kg/injection, schedule: Q04DX003 (ip), vehicle: other", "result": "113 % of control"}]}
